Experiments:
Assay type in all cases: in vivo
Phaedon cochleariae = Phaedon cochleariae spray test; details: foliar, 168 h, Chinese cabbage leaf discs, larvae, after 7 days, read-out: efficacy
Procedure: Phaedon cochleariae—Spray Test
To produce a suitable preparation of active compound, 1 part by weight of active compound is dissolved using the specified parts by weight of solvent and made up with water containing an emulsifier concentration of 1000 ppm until the desired concentration is attained. To produce further test concentrations, the formulation is diluted with emulsifier-containing water.
After 7 days, the efficacy in % is determined. 100% means that all the beetle larvae have been killed; 0% means that no beetle larvae have been killed.

Myzus persicae [1] = assay: Myzus persicae oral test; details: 120 h, 20 ppm, oral uptake, after 5 days, read-out: efficacy
Summary of the method: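 Aphids of mixed ages imbibe, through parafilm, compound solution (acetone stock, water-diluted) combined with sugar-supplemented IPL41 medium to 200 μl. Efficacy read at day 5 as percent killed, 0% meaning no deaths.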

Myzus persicae [2] = assay: Myzus persicae spray test (Chinese cabbage leaf discs); details: foliar, 120 h, after 5-6 days, read-out: efficacy
Summary of the method: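 Formulated compound in acetone/dimethylformamide, diluted in water with 1000 ppm emulsifier, was sprayed onto Brassica pekinensis leaf discs carrying mixed-stage Myzus persicae. Percent mortality was read 5-6 days later (0% = no aphids killed, 100% = all killed).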

Meloidogyne incognita = Meloidogyne incognita test; details: 336 h, lettuce, after 14 days, read-out: nematicidal efficacy (formation of galls)
Summary of the method: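 Gall formation on lettuce roots scored after 14 days: 0% means gall count equals untreated control, 100% means none. Sand vessels held the compound (acetone concentrate diluted in water), southern root-knot nematode egg/larvae suspension and lettuce seeds.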

Row | Compound | pest or weed control at 500 g/ha (Phaedon cochleariae) [%] | pest or weed control at 20 ppm (Myzus persicae [1]) [%] | pest or weed control at 500 g/ha (Myzus persicae [2]) [%] | pest or weed control at 20 ppm (Meloidogyne incognita) [%] | pest or weed control at 100 g/ha (Myzus persicae [2]; 100 g/ha) [%]
1 | O=C(NS(=O)(=O)c1ccc(Cl)cc1)c1nc(-c2ccccc2Cl)n(-c2ccccc2)c1Cl [Example 105] | 100 |  |  |  | 
2 | COc1ccc(Br)c(S(=O)(=O)NC(=O)c2cn(C)c(-c3c(F)cccc3F)n2)c1 [Example 143] | 100 | 90 | 90 |  | 
3 | Cn1cc(C(=O)NS(=O)(=O)c2ccc(Cl)c(Cl)c2)nc1-c1ccccc1Cl [Example 165] | 100 | 90 | 90 |  | 
4 | Cc1ccccc1S(=O)(=O)NC(=O)c1nc(-c2c(F)cccc2F)n(C)c1C [Example 196] | 100 | 100 |  |  | 
5 | Cc1cc(F)c(F)cc1S(=O)(=O)NC(=O)c1cn(C)c(-c2ccccc2Cl)n1 [Example 290] | 100 | 100 | 100 |  | 
6 | COc1cc(S(=O)(=O)NC(=O)c2cc(C)n(-c3ncccc3Br)n2)c(C)cc1Br [Example 300] | 100 | 100 | 90 |  | 
7 | Cc1ccc(F)cc1S(=O)(=O)NC(=O)c1cc(C)n(-c2ncccc2Br)n1 [Example 303] | 83 | 100 | 100 |  | 
8 | Cc1cccc(Cl)c1S(=O)(=O)NC(=O)c1cc(C)n(-c2ncccc2Br)n1 [Example 304] | 100 | 100 | 100 |  | 
9 | CCCc1cccc(C(F)(F)F)c1S(=O)(=O)NC(=O)c1cn(C)c(-c2c(F)cccc2F)n1 [Example 370] | 100 | 100 | 90 |  | 
10 | CCOc1ccc(Cl)c(S(=O)(=O)NC(=O)c2cn(C)c(-c3c(F)cccc3F)n2)c1 [Example 387] | 100 | 100 | 100 |  | 
11 | COc1ccc(OC)c(S(=O)(=O)NC(=O)c2nc(-c3c(F)cccc3F)n(C)c2C)c1 [Example 413] | 83 |  | 90 |  | 
12 | Cn1cc(C(=O)NS(=O)(=O)c2c(Cl)cccc2Br)nc1-c1c(F)cccc1F [Example 430] | 100 | 100 | 100 |  | 
13 | COc1ccc(C)c(S(=O)(=O)NC(=O)c2cn(C)c(-c3cccc(Cl)c3Cl)n2)c1 [Example 460] | 83 |  | 100 |  | 
14 | CCc1ccc(Cl)cc1S(=O)(=O)NC(=O)c1cn(C)c(-c2cccc(Cl)c2Cl)n1 [Example 461] | 100 | 100 | 100 |  | 
15 | Cn1cc(C(=O)NS(=O)(=O)c2ccccc2Cl)nc1-c1nccc2ccccc12 [Example 464] | 100 | 90 | 100 |  | 
16 | Cc1ccccc1S(=O)(=O)NC(=O)c1cn(C)c(-c2nccc3ccccc23)n1 [Example 465] | 100 | 100 | 100 |  | 
17 | Cn1cc(C(=O)NS(=O)(=O)c2c(Cl)cccc2Br)nc1-c1cccc(Cl)c1Cl [Example 466] | 100 | 100 | 90 |  | 
18 | Cn1cc(C(=O)NS(=O)(=O)c2c(Cl)cccc2C(F)(F)F)nc1-c1cccc(Cl)c1Cl [Example 467] | 100 | 100 | 100 |  | 

Row | Compound | pest or weed control at 500 g/ha (Phaedon cochleariae) [%] | pest or weed control at 20 ppm (Myzus persicae [1]) [%] | pest or weed control at 500 g/ha (Myzus persicae [2]) [%] | pest or weed control at 20 ppm (Meloidogyne incognita) [%] | pest or weed control at 100 g/ha (Myzus persicae [2]; 100 g/ha) [%]
19 | CCc1ccccc1S(=O)(=O)NC(=O)c1cn(C)c(-c2nccc3ccccc23)n1 [Example 469] | 100 | 100 | 90 |  | 
20 | Cc1ccccc1S(=O)(=O)NC(=O)c1cn(C)c(-c2ncccc2Cl)n1 [Example 540] | 100 | 100 | 100 |  | 
21 | Cn1cc(C(=O)NS(=O)(=O)c2ccccc2Cl)nc1-c1sccc1Cl [Example 547] |  | 90 | 90 | 100 | 
22 | CCc1ccccc1S(=O)(=O)NC(=O)c1cn(C)c(-c2cccc(Cl)c2Cl)n1 [Example 553] |  | 100 | 100 | 90 | 
23 | COc1ccc(Cl)c(S(=O)(=O)NC(=O)c2cn(C)c(-c3cccc(Cl)c3Cl)n2)c1 [Example 554] |  | 100 | 90 | 90 | 
24 | Cn1cc(C(=O)NS(=O)(=O)c2ccccc2Br)nc1-c1cccc(Cl)c1Cl [Example 555] |  | 100 | 90 | 90 | 
25 | COc1ccc(Br)c(S(=O)(=O)NC(=O)c2cn(C)c(-c3cccc(Cl)c3Cl)n2)c1 [Example 557] |  | 100 | 90 | 90 | 
26 | Cc1ccsc1S(=O)(=O)NC(=O)c1cn(C)c(-c2cccc(Cl)c2Cl)n1 [Example 560] |  | 100 | 100 | 100 | 
27 | COc1ccccc1S(=O)(=O)NC(=O)c1cn(C)c(-c2cccc(Cl)c2Cl)n1 [Example 567] |  | 100 | 100 | 90 | 
28 | Cn1cc(C(=O)NS(=O)(=O)c2c(Cl)cccc2Cl)nc1-c1ncccc1Cl [Example 588] |  | 100 | 90 | 90 | 
29 | COc1ccc(C)c(S(=O)(=O)NC(=O)c2cn(C)c(-c3ncccc3F)n2)c1 [Example 593] |  | 100 | 100 | 90 | 
30 | Cn1cc(C(=O)NS(=O)(=O)c2c(Cl)cccc2Cl)nc1-c1ncccc1F [Example 594] |  | 100 | 90 | 90 | 
31 | Cn1cc(C(=O)NS(=O)(=O)c2c(Cl)cccc2Br)nc1-c1ncccc1F [Example 595] |  | 100 | 90 | 90 | 
32 | COc1ccc(F)cc1S(=O)(=O)NC(=O)c1cn(C)c(-c2ncccc2F)n1 [Example 596] |  | 100 | 100 | 90 | 
33 | Cn1cc(C(=O)NS(=O)(=O)c2c(Cl)cccc2C(F)(F)F)nc1-c1ncccc1Cl [Example 600] |  | 100 | 100 | 100 | 
34 | CCc1ccsc1S(=O)(=O)NC(=O)c1cn(C)c(-c2ncccc2Cl)n1 [Example 605] |  | 100 | 100 | 90 | 
35 | COc1cc(S(=O)(=O)NC(=O)c2cn(C)c(-c3ncccc3F)n2)c(C)cc1Br [Example 610] | 100 | 100 | 100 |  | 
36 | CCc1[nH]c(-c2cccc(C(C)C)c2)nc1C(=O)NS(=O)(=O)c1ccccc1Cl [Example 613] |  | 100 |  | 90 | 90
